For the assay, the target named is Recombinant human cathepsin S (CatS) (Homo sapiens, UniProt P25774). Description: Recombinant human cathepsin S (CatS) inhibition assay, fluorogenic substrate Z-Valine-Valine-Arginine-AMC.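 Note: Baculovirus-expressed CatS in pH 5.0 sodium acetate buffer with DTT and NaCl, fluorescence read each minute over 20 min, inhibition derived from rate slope.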
The mark [1] stands for this setting: CatS IC50, Table 2, average of results obtained.

Read-outs that look alike come from different tables or passages of the source.

Sequence of Recombinant human cathepsin S (CatS) (P25774 115-331): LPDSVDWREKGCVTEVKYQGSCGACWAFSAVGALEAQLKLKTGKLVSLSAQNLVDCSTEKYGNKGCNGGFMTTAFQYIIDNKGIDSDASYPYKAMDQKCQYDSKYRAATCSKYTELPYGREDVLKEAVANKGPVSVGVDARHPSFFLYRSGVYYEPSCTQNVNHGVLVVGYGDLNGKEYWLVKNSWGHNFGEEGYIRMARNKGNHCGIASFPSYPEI

Usually IC50 stands for the concentration at which inhibition is half-maximal. As to `NC(=O)N1CCc2c(c(-c3ccc(Cl)c(C#Cc4ccc(C(=O)N5CC[C@@H](O)C5)cc4)c3)nn2CCCN2CCSCC2)C1` [Example 552, 3-{4-Chloro-3-[(4-{[(3R)-3-hydroxypyrrolidin-1-yl]carbonyl}phenyl)ethynyl]phenyl}-1-(3-thiomorpholin-4-ylpropyl)-1,4,6,7-tetrahydro-5H-pyrazolo[4,3-c]pyridine-5-carboxamide], the IC50 (CatS IC50) amounted to 500 nM. For `CNCCCNC(=O)c1cc(C#Cc2cc(-c3nn(CCCN4CCOC[C@@H]4C)c4c3CN(C(=O)C(N)=O)CC4)ccc2Cl)ccc1Cl` [Example 273, (S)-5-(5-{5-Aminooxalyl-1-[3-(3-methyl-morpholin-4-yl)-propyl]-4,5,6,7-tetrahydro-1H-pyrazolo[4,3-c]pyridin-3-yl}-2-chloro-phenylethynyl)-2-chloro-N-(3-methylamino-propyl)-benzamide], the IC50 came to 40 nM. For the compound `CS(=O)(=O)N1CCc2c(c(-c3ccc(Cl)c(C#Cc4ccc5c(c4)CNCC5)c3)nn2CCCN2CCCCC2)C1` [Example 381, 7-({2-Chloro-5-[5-(methylsulfonyl)-1-(3-piperidin-1-ylpropyl)-4,5,6,7-tetrahydro-1H-pyrazolo[4,3-c]pyridin-3-yl]phenyl}ethynyl)-1,2,3,4-tetrahydroisoquinoline], the IC50 (CatS IC50) was found to be 100 nM. As to `CS(=O)(=O)N1CCc2c(c(-c3ccc(Cl)c(CCCNC(=O)c4ccccc4)c3)nn2CCCN2CCOCC2)C1` [Example 64, N-(3-{2-Chloro-5-[5-methanesulfonyl-1-(3-morpholin-4-yl-propyl)-4,5,6,7-tetrahydro-1H-pyrazolo[4,3-c]pyridin-3-yl]-phenyl}-propyl)-benzamide], the IC50 is 5400 nM. `CS(=O)(=O)N1CCc2c(c(-c3ccc(Cl)c(C#Cc4ccc(F)cc4)c3)nn2CCCN2CCOCC2)C1` [Example 31, 3-[4-Chloro-3-(4-fluoro-phenylethynyl)-phenyl]-5-methanesulfonyl-1-(3-morpholin-4-yl-propyl)-4,5,6,7-tetrahydro-1H-pyrazolo[4,3-c]pyridine]: the IC50 under setting [1] came to 440 nM. For `NC(=O)N1CCc2c(c(-c3ccc(Cl)c(C#Cc4cccc(CNCc5ccc(Cl)cc5)c4)c3)nn2CCCN2CCSCC2)C1` [Example 171, 3-(4-Chloro-3-{[3-({[(4-chlorophenyl)methyl]amino}methyl)phenyl]ethynyl}phenyl)-1-(3-thiomorpholin-4-ylpropyl)-1,4,6,7-tetrahydro-5H-pyrazolo[4,3-c]pyridine-5-carboxamide], the IC50 (CatS IC50) was 200 nM. The same measure, in the same setting: with `NC(=O)N1CCc2c(c(-c3ccc(Cl)c(C#Cc4ccc(Cl)c(C(=O)NCCN5CCOCC5)c4)c3)nn2CCCN2CCCCC2)C1` [Example 590, 3-[4-Chloro-3-({4-chloro-3-[(2-morpholin-4-ylethyl)carbamoyl]phenyl}ethynyl)phenyl]-1-(3-piperidin-1-ylpropyl)-1,4,6,7-tetrahydro-5H-pyrazolo[4,3-c]pyridine-5-carboxamide] the figure was 70 nM. For `CS(=O)(=O)N1CCc2c(c(-c3ccc(Cl)c(C#CCCO)c3)nn2CCCN2CCOCC2)C1` [Example 299, 4-{2-Chloro-5-[5-(methylsulfonyl)-1-(3-morpholin-4-ylpropyl)-4,5,6,7-tetrahydro-1H-pyrazolo[4,3-c]pyridin-3-yl]phenyl}but-3-yn-1-ol], the IC50 was 4800 nM.

On to `CS(=O)(=O)N1CCc2c(c(-c3ccc(Cl)c(C#Cc4ccc(CNCc5ccc(Cl)c(Cl)c5)cc4)c3)nn2CCCN2CCOCC2)C1` [Example 212, 1-[4-({2-Chloro-5-[5-(methylsulfonyl)-1-(3-morpholin-4-ylpropyl)-4,5,6,7-tetrahydro-1H-pyrazolo[4,3-c]pyridin-3-yl]phenyl}ethynyl)phenyl]-N-[(3,4-dichlorophenyl)methyl]methanamine], for which the IC50 was 80 nM.

Turning to `C[C@H]1COCCN1CCCn1nc(-c2ccc(Cl)c(C#Cc3ccc4c(c3)CN(C3CC3)CC4)c2)c2c1CCN(C(=O)C(N)=O)C2` [Example 283, 2-(3-{4-Chloro-3-[(2-cyclopropyl-1,2,3,4-tetrahydroisoquinolin-7-yl)ethynyl]phenyl}-1-{3-[(3S)-3-methylmorpholin-4-yl]propyl}-1,4,6,7-tetrahydro-5H-pyrazolo[4,3-c]pyridin-5-yl)-2-oxoacetamide], the IC50 (CatS IC50) worked out at 100 nM. Take `CS(=O)(=O)N1CCc2c(c(-c3ccc(Cl)c(C#CCNC(=O)c4ccccc4)c3)nn2CCCN2CCOCC2)C1` [Example 53, N-(3-{2-Chloro-5-[5-methanesulfonyl-1-(3-morpholin-4-yl-propyl)-4,5,6,7-tetrahydro-1H-pyrazolo[4,3-c]pyridin-3-yl]-phenyl}-prop-2-ynyl)-benzamide]: the IC50 is 15500 nM. `CNCCCNC(=O)c1ccc(C#Cc2cc(-c3nn(CCCN4CCCCC4)c4c3CN(S(C)(=O)=O)CC4)ccc2Cl)cc1` [Example 614, 4-({2-Chloro-5-[5-(methylsulfonyl)-1-(3-piperidin-1-ylpropyl)-4,5,6,7-tetrahydro-1H-pyrazolo[4,3-c]pyridin-3-yl]phenyl}ethynyl)-N-[3-(methylamino)propyl]benzamide]: the IC50 (CatS IC50) turned out to be 60 nM. For `NC(=O)C(=O)N1CCc2c(c(-c3ccc(Cl)c(C#Cc4ccc(CNCc5ccc(Cl)cc5)cc4)c3)nn2CCCN2CCSCC2)C1` [Example 414, 2-[3-(4-Chloro-3-{[4-({[(4-chlorophenyl)methyl]amino}methyl)phenyl]ethynyl}phenyl)-1-(3-thiomorpholin-4-ylpropyl)-1,4,6,7-tetrahydro-5H-pyrazolo[4,3-c]pyridin-5-yl]-2-oxoacetamide], the IC50 amounted to 30 nM. Consider `CS(=O)(=O)N1CCc2c(c(-c3ccc(Cl)c(C#Cc4ccc(C=O)cc4)c3)nn2CCCN2CCOCC2)C1` [Example 37, 4-{2-Chloro-5-[5-methanesulfonyl-1-(3-morpholin-4-yl-propyl)-4,5,6,7-tetrahydro-1H-pyrazolo[4,3-c]pyridin-3-yl]-phenylethynyl}-benzaldehyde], for which the IC50 under setting [1] amounted to 120 nM.

Consider `CS(=O)(=O)N1CCc2c(c(-c3ccc(Cl)c(C#Cc4cccc(CNCC(=O)O)c4)c3)nn2CCCN2CCOCC2)C1` [Example 189, N-{[3-({2-Chloro-5-[5-(methylsulfonyl)-1-(3-morpholin-4-ylpropyl)-4,5,6,7-tetrahydro-1H-pyrazolo[4,3-c]pyridin-3-yl]phenyl}ethynyl)phenyl]methyl}glycine], for which the IC50 (CatS IC50) turned out to be 140 nM. Regarding `CC(C)CNCc1ccc(C#Cc2cc(-c3nn(CCCN4CCOCC4)c4c3CN(S(C)(=O)=O)CC4)ccc2Cl)cc1` [Example 318, N-{[4-({2-Chloro-5-[5-(methylsulfonyl)-1-(3-morpholin-4-ylpropyl)-4,5,6,7-tetrahydro-1H-pyrazolo[4,3-c]pyridin-3-yl]phenyl}ethynyl)phenyl]methyl}-2-methylpropan-1-amine], under “CatS IC50”, the IC50 worked out at 1150 nM. Take `CS(=O)(=O)N1CCc2c(c(-c3ccc(Cl)c(C#Cc4ccc(CNCc5ccc(Cl)cc5)cc4)c3)nn2CCCN2CCCOCC2)C1` [Example 399, 1-{4-[(2-Chloro-5-{5-(methylsulfonyl)-1-[3-(1,4-oxazepan-4-yl)propyl]-4,5,6,7-tetrahydro-1H-pyrazolo[4,3-c]pyridin-3-yl}phenyl)ethynyl]phenyl}-N-[(4-chlorophenyl)methyl]methanamine]: the IC50 (CatS IC50) is 110 nM. With `CS(=O)(=O)N1CCc2c(c(-c3cccc(CCc4cccc(O)c4)c3)nn2CCCN2CCOCC2)C1` [Example 296, 3-(2-{3-[5-(Methylsulfonyl)-1-(3-morpholin-4-ylpropyl)-4,5,6,7-tetrahydro-1H-pyrazolo[4,3-c]pyridin-3-yl]phenyl}ethyl)phenol], the IC50 was 15500 nM.

With `CS(=O)(=O)N1CCc2c(c(-c3ccc(Cl)c(C#Cc4ccc(CNCc5ccc(Cl)cc5)cc4)c3)nn2CCCN2CCOCC2C(=O)O)C1` (centres unmarked) [Example 437, 4-{3-[3-(4-Chloro-3-{[4-({[(4-chlorophenyl)methyl]amino}methyl)phenyl]ethynyl}phenyl)-5-(methylsulfonyl)-4,5,6,7-tetrahydro-1H-pyrazolo[4,3-c]pyridin-1-yl]propyl}morpholine-3-carboxylic acid], the IC50 came out at 570 nM. Still for that read-out and setting: in the case of `CS(=O)(=O)N1CCc2c(c(-c3ccc(Cl)c(CCCCN4CCCCCC4)c3)nn2CCCN2CCC(N3CCCC3=O)CC2)C1` [Example 114, 1-[1-(3-{3-[3-(4-Azepan-1-yl-butyl)-4-chloro-phenyl]-5-methanesulfonyl-4,5,6,7-tetrahydro-pyrazolo[4,3-c]pyridin-1-yl}-propyl)-piperidin-4-yl]-pyrrolidin-2-one] it was 1520 nM; in that of `NC(=O)N1CCc2c(c(-c3ccc(Cl)c(C#Cc4ccc(Cl)c(C(=O)NCCN5CCOCC5)c4)c3)nn2CCCN2CCSCC2)C1` [Example 585, 3-[4-Chloro-3-({4-chloro-3-[(2-morpholin-4-ylethyl)carbamoyl]phenyl}ethynyl)phenyl]-1-(3-thiomorpholin-4-ylpropyl)-1,4,6,7-tetrahydro-5H-pyrazolo[4,3-c]pyridine-5-carboxamide], 40 nM. In the case of `C[C@H]1COCCN1CCCn1nc(-c2ccc(Cl)c(C#Cc3ccc(C(=O)NC[C@@H]4CCCN4)cc3)c2)c2c1CCN(C(=O)C(N)=O)C2` [Example 610, 4-{[5-(5-[Amino(oxo)acetyl]-1-{3-[(3S)-3-methylmorpholin-4-yl]propyl}-4,5,6,7-tetrahydro-1H-pyrazolo[4,3-c]pyridin-3-yl)-2-chlorophenyl]ethynyl}-N-[(2S)-pyrrolidin-2-ylmethyl]benzamide], the IC50 (CatS IC50) is 30 nM.

`COC(=O)c1ccccc1S(=O)(=O)NCCCc1cc(-c2nn(CCCN3CCC(N4CCCC4=O)CC3)c3c2CN(S(C)(=O)=O)CC3)ccc1Cl` [Example 309, Methyl 2-{[(3-{2-chloro-5-[5-(methylsulfonyl)-1-{3-[4-(2-oxopyrrolidin-1-yl)piperidin-1-yl]propyl}-4,5,6,7-tetrahydro-1H-pyrazolo[4,3-c]pyridin-3-yl]phenyl}propyl)amino]sulfonyl}benzoate]: the IC50 was 320 nM.

These data come from US20080200454A1, “CARBON-LINKED TETRAHYDRO-PYRAZOLO-PYRIDINE MODULATORS OF CATHEPSIN S” (priority 2007, published 2008).
